Test results reported in patent US4833162A, “Substituted benzeneacetonitriles and their use as calcium channel blockers” (American Cyanamid Company, priority 1988, dated 1989).
Structures can show the parent of a compound that is named as a salt.

Assays:
[1] = system: thoracic aortae rings (potassium chloride-induced contraction); assay: Calcium antagonist Test 1: inhibition of potassium chloride-induced contraction of rat thoracic aortic rings; format: cell-based, Sprague-Dawley rat; conditions: 50 mM potassium chloride, 37° C., active if >50% inhibition at 3×10^-5 M, read-out: bath concentration at which more than 50% of the potassium chloride-induced contraction was inhibited
Experimental: Male Sprague-Dawley rats, weighing 300-470 g, were killed and their thoracic aortae were removed immediately, cleared of blood, fat and connective tissue and cut into rings 1-2 mm wide. […] The bath media was maintained at 37° C. and aerated with 5% carbon dioxide in oxygen.
At the start of the test, the aortic rings were stretched to an initial tension of one gram. The tissues were then allowed to equilibrate for 90 minutes until they reached a steady tension. Changes in tension were recorded using a force displacement transducer coupled to a Grass polygraph.
The potassium chloride-induced contractions were repeated until a constant tension was obtained. These initial contractions served as a control for subsequent contractions induced in the presence of a test compound.
Each compound was dissolved in ethanol to a stock concentration of 10^-2 M. The ability of these compounds to inhibit a potassium chloride-induced contraction was determined by comparing the tension developed in the presence of each compound versus the control.

[2] = system: rat; assay: Test 2: antihypertensive activity in the rat (MABP and heart rate); format: in vivo; conditions: for antihypertensive activity (comparison in words): Verapamil 50 mg/kg versus 1-methylethyl substituted thio compound 100 mg/kg; for heart rate (HR) / mean arterial blood pressure (MABP): average two rats
Experimental: Antihypertensive activity was measured in the rat by the mean arterial blood pressure (MABP) in millimeters of mercury and heart rate (HR) in beats per minute (average two rats).

[3] = system: renal hypertensive dogs; assay: Test 3: antihypertensive activity in renal hypertensive dogs; format: in vivo, dog
Experimental: Antihypertensive activity was also measured in renal hypertensive dogs.

Row | Structure (SMILES) | IC50 [1] [µM] | antihypertensive activity (comparison in words) [2] | heart rate (HR) ([2]; dose of 100 mg/kg) [beats per minute] | mean arterial blood pressure (MABP) ([2]; dose of 100 mg/kg) | increase in HR to ([3]; dose of 20 mg/kg) | drop in blood pressure ([3]; dose of 20 mg/kg, over a two hour period) [millimeter] | heart rate (HR) ([2]; dose of 50 mg/kg) [beats per minute] | mean arterial blood pressure (MABP) ([2]; dose of 50 mg/kg) | increase in HR of ([3]; dose of 10 mg/kg) | drop in blood pressure ([3]; dose of 10 mg/kg, over a four hour period)
1 | COc1ccc(CCN(C)CCSC(C#N)(c2ccc(OC)c(OC)c2)C(C)C)cc1OC (stereo not drawn) [1-methylethyl substituted thio compound, A-[[2-[[2-(3,4dimethoxyphenyl)ethyl]methylamino]ethyl]thio]-3,4-dimethoxy-A-(1-methylethyl) benzeneacetonitrile monohydrochloride] | 0.8 | comparable antihypertensive activity | 320 | 97 millimeters of mercury | above 153 | 45 | – | – | – | –
2 | COc1ccc(CCN(C)CCCC(C#N)(c2ccc(OC)c(OC)c2)C(C)C)cc1OC (stereo not drawn) [Verapamil, A-[3-[[2-(3,4-dimethoxyphenyl)ethyl]methylamino]propyl]-3,4-dimethoxy-A-(1-methylethyl) benzeneacetonitrile, reference compound] | – | comparable antihypertensive activity | – | – | – | – | 350 | 93 millimeters of mercury | 75 | 30 millimeters of mercury
3 | COc1ccc(CCN(C)CCSC(C#N)c2ccc(OC)c(OC)c2)cc1OC (stereo not drawn) [unsubstituted thio compound, A-[[2-[[2(3,4-dimethoxyphenyl)ethyl]methylamino]ethyl]thio]-3,4-dimethoxy-A-benzeneacetonitrile monohydrochloride] | 3 | – | – | – | – | – | – | – | – | –
